The experiment deals with T1, Recombinant human KIF18A (1-467 His-tagged) protein (Homo sapiens, UniProt Q8NI77).
T1 construct: Recombinant human KIF18A (1-467 His-tagged) protein; His; made in house
Put plainly: KIF18A Enzyme Assay: microtubule-stimulated ATPase activity (ADP-Glo). The following applies: 30 nM KIF18A, 30 μg/mL pig microtubules, 75 μM ATP, ADP-Glo luminescence. The format is biochemical. From the text: KIF18A Enzyme Assay: Microtubule-stimulated ATPase activity assay is used to measure KIF18A enzyme activity after treatment with compound. Compounds were 2-fold serially diluted in DMSO (Sigma Inc) over 22-point concentration range. Recombinant human KIF18A (1-467 His-tagged) protein was expressed using a baculovirus system and purified by affinity chromatography by Amgen Inc. Concentrations of KIF18A protein, microtubules (MT), and ATP in the reaction were optimized for standardized homogenous enzyme assay using ADP-Glo™ Kinase/ATPase Assay Kit (Promega Inc). The assay measures ADP formed from the ATPase reaction. Prepare reaction buffer [(15 mM Tris, pH 7.5 (Teknova Inc), 10 mM MgCl2 (IT Baker Inc), 0.01% Pluronic F-68 (Life Technologies Inc), 1 μM Taxol (Cytoskeleton Inc), and 30 μg/mL pig microtubules (Cytoskeleton Inc)]. Add compound and KIF18A protein (30 nM) to prepared reaction buffer and incubated for 15 minutes at room temperature, next add ATP (at Kin, 75 μM) to the reaction mixture and incubated for an additional 15 minutes at room temperature. Mix 5 μl of ADP-Glo™ Reagent and 2.5 μl of the reaction mixture and incubate for 40 minutes at room temperature. Add 10 μl ADP-Glo™ Detection Reagent and incubate for 40 minutes at room temperature. Read luminescence using EnVision microplate reader with ultra-luminescence module (Perkin Elmer Inc). Concentration-response curve-fitting and IC50 determination was performed using Genedata Screener Software (Standard 15.0.1, Genedata Inc) with a four-parameter logistic regression fit model.
Table A provides data for compounds exemplified in the present application and priority document thereof, as representative compounds of the present invention, as follows: chemical name (as named by either ACD software or ChemDraw (Professional 15.0)) and biological data (IC50 in μM). Ex. # refers to Example No.
For orientation: In ADP-Glo the light output rises with the ADP produced.

For orientation: IC50 means the point on the concentration scale where inhibition reaches its midpoint.

T1 sequence (Q8NI77 1-467): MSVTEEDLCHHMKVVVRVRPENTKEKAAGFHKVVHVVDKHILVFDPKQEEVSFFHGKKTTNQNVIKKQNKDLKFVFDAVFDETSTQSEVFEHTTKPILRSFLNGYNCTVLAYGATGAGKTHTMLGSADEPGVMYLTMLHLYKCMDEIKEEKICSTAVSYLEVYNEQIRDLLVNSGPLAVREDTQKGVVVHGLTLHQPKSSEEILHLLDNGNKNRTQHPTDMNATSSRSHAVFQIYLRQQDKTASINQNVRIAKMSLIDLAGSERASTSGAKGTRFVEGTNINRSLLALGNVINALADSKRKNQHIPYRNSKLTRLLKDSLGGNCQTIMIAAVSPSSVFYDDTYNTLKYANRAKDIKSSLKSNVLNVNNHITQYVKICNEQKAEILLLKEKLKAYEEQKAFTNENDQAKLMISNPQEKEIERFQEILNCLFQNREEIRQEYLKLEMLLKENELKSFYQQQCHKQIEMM
T1 sequence (P02550 whole entry partner): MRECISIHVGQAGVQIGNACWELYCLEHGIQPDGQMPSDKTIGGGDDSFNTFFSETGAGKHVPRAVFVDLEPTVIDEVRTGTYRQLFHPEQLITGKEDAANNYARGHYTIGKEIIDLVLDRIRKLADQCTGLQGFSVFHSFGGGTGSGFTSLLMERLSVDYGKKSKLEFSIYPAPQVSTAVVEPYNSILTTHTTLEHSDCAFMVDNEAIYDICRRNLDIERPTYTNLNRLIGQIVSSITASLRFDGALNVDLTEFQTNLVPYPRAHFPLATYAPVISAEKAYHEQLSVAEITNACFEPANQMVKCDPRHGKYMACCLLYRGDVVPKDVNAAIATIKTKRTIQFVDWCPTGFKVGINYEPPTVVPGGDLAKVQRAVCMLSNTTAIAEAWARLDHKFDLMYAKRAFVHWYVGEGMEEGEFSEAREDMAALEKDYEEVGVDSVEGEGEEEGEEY
T1 sequence (P02554 whole entry partner): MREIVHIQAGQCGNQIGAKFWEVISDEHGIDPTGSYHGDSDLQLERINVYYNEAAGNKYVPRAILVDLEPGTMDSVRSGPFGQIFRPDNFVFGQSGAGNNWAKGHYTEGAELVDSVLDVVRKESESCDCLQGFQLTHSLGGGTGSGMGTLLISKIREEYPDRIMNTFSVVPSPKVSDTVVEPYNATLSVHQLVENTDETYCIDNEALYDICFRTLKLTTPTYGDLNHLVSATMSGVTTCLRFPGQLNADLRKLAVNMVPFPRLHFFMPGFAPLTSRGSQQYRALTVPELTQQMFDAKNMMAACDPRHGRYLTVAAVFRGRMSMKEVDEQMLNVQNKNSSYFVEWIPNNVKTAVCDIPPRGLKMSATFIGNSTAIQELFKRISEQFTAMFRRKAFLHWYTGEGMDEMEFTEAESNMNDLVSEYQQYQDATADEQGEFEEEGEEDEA

Turning to `O=C(Nc1cccc(S(=O)(=O)N2CCCCC2)n1)c1ncc(NC2(CO)CC2)nc1N1CCC2(CC1)CC2` [Example 101, 3-(6-azaspiro[2.5]oct-6-yl)-5-((1-(hydroxymethyl)cyclopropyl)amino)-N-(6-(1-piperidinylsulfonyl)-2-pyridinyl)-2-pyrazinecarboxamide], the IC50 worked out at 106 nM.
`CNC1CCCN(c2cccc(NC(=O)c3ccc(NC(C)(C)CO)nc3N3CCC4(CC3)CC4)n2)C1` (centres unmarked) [Example 233, 6-((1-hydroxy-2-methylpropan-2-yl)amino)-N-(6-(3-(methylamino)piperidin-1-yl)pyridin-2-yl)-2-(6-azaspiro[2.5]octan-6-yl)nicotinamide]: the IC50 was found to be 999 nM.
On to `CC(C)(CO)Nc1ccc(C(=O)Nc2cccc(N3CCCC(O)(CO)C3)n2)c(N2CCC3(CC2)CC3)n1` (centres unmarked) [Example 230, 6-((1-hydroxy-2-methylpropan-2-yl)amino)-N-(6-(3-hydroxy-3-(hydroxymethyl)piperidin-1-yl)pyridin-2-yl)-2-(6-azaspiro[2.5]octan-6-yl)nicotinamide], for which the IC50 stood at 114 nM.
`COC1CCN(c2cccc(NC(=O)c3ccc(NC(C)(C)CO)nc3N3CCC4(CC3)CC4)n2)C1` (stereo not drawn) [Example 124, 6-((1-hydroxy-2-methylpropan-2-yl)amino)-N-(6-(3-methoxypyrrolidin-l-yl)pyridin-2-yl)-2-(6-azaspiro[2.5]octan-6-yl)nicotinamide]: the IC50 came to 407 nM.
The value for `CC(C)(CO)Nc1ccc(C(=O)Nc2cccc(N3CC(O)CC3(C)C)n2)c(N2CCC3(CC2)CC3)n1` (centres unmarked) [Example 219, N-(6-(4-hydroxy-2,2-dimethylpyrrolidin-1-yl)pyridin-2-yl)-6-((1-hydroxy-2-methylpropan-2-yl)amino)-2-(6-azaspiro[2.5]octan-6-yl)nicotinamide] was 217 nM; that for `CC(C)(CO)Nc1ccc(C(=O)Nc2cccc(N3CCC(O)C3)n2)c(N2CCC3(CC2)CC3)n1` (centres unmarked) [Example 131, 6-((1-hydroxy-2-methylpropan-2-yl)amino)-N-(6-(3-hydroxypyrrolidin-1-yl)pyridin-2-yl)-2-(6-azaspiro[2.5]octan-6-yl)nicotinamide] was 294 nM.
Turning to `CC(C)(CO)Nc1cnc(C(=O)Nc2cccc(N3CCOCC3)n2)c(N2CCC3(CC2)CC3)n1` [Example 106, 3-(6-azaspiro[2.5]oct-6-yl)-5-((2-hydroxy-1,1-dimethylethyl)amino)-N-(6-(4-morpholinyl)-2-pyridinyl)-2-pyrazinecarboxamide], the IC50 was found to be 84.4 nM.
Regarding `CC(C)(C)NS(=O)(=O)c1cccc(NC(=O)c2ncc(NC(C)(C)CO)nc2N2CCC3(CC2)CC3)n1` [Example 102, N-(6-(N-(tert-butyl)sulfamoyl)pyridin-2-yl)-5-((1-hydroxy-2-methylpropan-2-yl)amino)-3-(6-azaspiro[2.5]octan-6-yl)pyrazine-2-carboxamide], the concentration for half-maximal inhibition (IC50) is 75.3 nM.
Turning to `CN(C(=O)OC(C)(C)C)C1CCCN(c2cccc(NC(=O)c3ccc(NC(C)(C)CO)nc3N3CCC4(CC3)CC4)n2)C1` (centres unmarked) [Example 232, tert-butyl (1-(6-(6-((1-hydroxy-2-methylpropan-2-yl)amino)-2-(6-azaspiro[2.5]octan-6-yl)nicotinamido)pyridin-2-yl)piperidin-3-yl)(methyl)carbamate], the IC50 was 948 nM.
In the case of `CC(C)(C)NS(=O)(=O)c1cccc(NC(=O)c2ccc([C@@](O)(CO)C(F)(F)F)nc2N2CCC3(CC2)CC3)n1` (single isomer, unassigned) [Example 175], the IC50 was found to be 116 nM.
The value for `COCC(C)(CO)Nc1ccc(C(=O)Nc2cccc(N3CCO[C@H](C)C3)n2)c(N2CCC3(CC2)CC3)n1` (stereo partly drawn) [Example 217, 6-((1-hydroxy-3-methoxy-2-methylpropan-2-yl)amino)-N-(6-((R)-2-methylmorpholino)pyridin-2-yl)-2-(6-azaspiro[2.5]octan-6-yl)nicotinamide] was 222 nM; that for `O=C(Nc1cccc(N2CCC[C@@H](O)C2)n1)c1ccc(C(O)(CO)C(F)(F)F)nc1N1CCC2(CC1)CC2` (stereo partly drawn) [Example 242, N-(6-((R)-3-hydroxypiperidin-l-yl)pyridin-2-yl)-2-(6-azaspiro[2.5]octan-6-yl)-6-(1,1,1-trifluoro-2,3-dihydroxypropan-2-yl)nicotinamide] was 78.1 nM; that for `CC(CO)(CO)Nc1ccc(C(=O)Nc2cccc(N3CCOCC3)n2)c(N2CCC3(CC2)CC3)n1` [Example 148, 2-(6-azaspiro[2.5]oct-6-yl)-6-((1,3-dihydroxy-2-methyl-2-propanyl)amino)-N-(6-(4-morpholinyl)-2-pyridinyl)-3-pyridinecarboxamide] was 60.4 nM.
In the case of `CC(C)(C)NS(=O)(=O)c1cccc(NC(=O)c2ccc([C@@](C)(O)C(F)(F)F)nc2N2CCC3(CC2)CC3)n1` (single isomer, unassigned) [Example 153] it was 53.4 nM; in that of `CC(C)(CO)Nc1ccc(C(=O)Nc2cccc(N3CCCC3=O)n2)c(N2CCC3(CC2)CC3)n1` [Example 134, 2-(6-azaspiro[2.5]oct-6-yl)-6-((2-hydroxy-1,1-dimethylethyl)amino)-N-(6-(2-oxo-1-pyrrolidinyl)-2-pyridinyl)-3-pyridinecarboxamide], 204 nM.
Take `C[C@](O)(c1ccc(C(=O)Nc2cccc(N3CCOCC3)n2)c(N2CCC3(CC2)CC3)n1)C(F)(F)F` [Example 142, 2-(6-azaspiro[2.5]oct-6-yl)-N-(6-(4-morpholinyl)-2-pyridinyl)-6-((2S)-1,1,1-trifluoro-2-hydroxy-2-propanyl)-3-pyridinecarboxamide]: the IC50 turned out to be 57.5 nM.
For `CC(O)(c1ccc(C(=O)Nc2cccc(N3CCOCC3)n2)c(N2CCC3(CC2)CC3)n1)C(F)(F)F` (centres unmarked) [Example 140, N-(6-morpholinopyridin-2-yl)-2-(6-azaspiro[2.5]octan-6-yl)-6-(1,1,1-trifluoro-2-hydroxypropan-2-yl)nicotinamide], the IC50 turned out to be 71.2 nM.
For `CC(CO)(CO)Nc1ccc(C(=O)Nc2cccc(Br)n2)c(N2CCC3(CC2)CC3)n1` [Example 164, 2-(6-azaspiro[2.5]octan-6-yl)-N-(6-bromo-2-pyridinyl)-6-((1,3-dihydroxy-2-methyl-2-propanyl)amino)-3-pyridinecarboxamide], the IC50 turned out to be 2750 nM.
Turning to `C[C@@H]1CN(c2cccc(NC(=O)c3ccc([C@@](O)(CO)C(F)(F)F)nc3N3CCC4(CC3)CC4)n2)CCO1` (single isomer, unassigned) [Example 206], the IC50 was found to be 116 nM.
Consider `CC(C)(CCO)Nc1ccc(C(=O)Nc2cccc(N3CCO[C@H](CO)C3)n2)c(N2CCC3(CC2)CC3)n1` [Example 210, 2-(6-azaspiro[2.5]octan-6-yl)-6-((4-hydroxy-2-methyl-2-butanyl)amino)-N-(6-((2S)-2-(hydroxymethyl)-4-morpholinyl)-2-pyridinyl)-3-pyridinecarboxamide], for which the IC50 was 239 nM.
Take `CC(C)(CO)Nc1cnc(C(=O)Nc2cccc(N3CCO[C@H](CO)C3)n2)c(N2CCC3(CC2)CC3)n1` [Example 120, 3-(6-azaspiro[2.5]octan-6-yl)-N-(6-((2S)-2-(hydroxymethyl)-4-morpholinyl)-2-pyridinyl)-5-((1-hydroxy-2-methyl-2-propanyl)amino)-2-pyrazinecarboxamide]: the half-maximal inhibitory concentration (IC50) worked out at 176 nM.
As to `C[C@H]1CN(c2cccc(NC(=O)c3ccc(NC(C)(C)CO)nc3N3CCC4(CC3)CC4)n2)C[C@H](C)O1` (racemic) [Example 150, N-(6-((2S,6S)-2,6-dimethylmorpholino)pyridin-2-yl)-6-((1-hydroxy-2-methylpropan-2-yl)amino)-2-(6-azaspiro[2.5]octan-6-yl)nicotinamide], the IC50 came out at 99.7 nM.
`CCC1CN(c2cccc(NC(=O)c3ccc(NC(C)(C)CO)nc3N3CCC4(CC3)CC4)n2)CCO1` (centres unmarked) [Example 204, N-(6-(2-ethylmorpholino)pyridin-2-yl)-6-((1-hydroxy-2-methylpropan-2-yl)amino)-2-(6-azaspiro[2.5]octan-6-yl)nicotinamide]: the IC50 was determined as 160 nM.
On to `C[C@@H]1CN(c2cccc(NC(=O)c3ccc(NC(CO)(CO)CO)nc3N3CCC4(CC3)CC4)n2)CCO1` [Example 222, 2-(6-azaspiro[2.5]octan-6-yl)-6-((1,3-dihydroxy-2-(hydroxymethyl)-2-propanyl)amino)-N-(6-((2R)-2-methyl-4-morpholinyl)-2-pyridinyl)-3-pyridinecarboxamide], for which the IC50 was 88 nM.
With `CC(C)(C)NS(=O)(=O)c1cccc(NC(=O)c2ccc([C@](C)(O)CO)nc2N2CCC3(CC2)CC3)n1` (single isomer, unassigned) [Example 177], the IC50 turned out to be 87.3 nM.
For `CNS(=O)(=O)c1ccc(C(=O)Nc2cccc(N3CCO[C@H](C)C3)n2)c(N2CCC3(CC2)CC3)n1` [Example 223, (R)-N-(6-(2-methylmorpholino)pyridin-2-yl)-6-(N-methylsulfamoyl)-2-(6-azaspiro[2.5]octan-6-yl)nicotinamide], the IC50 was 79.4 nM.

The values are drawn from patent publication US12441736B2, “KIF18A inhibitors” (AMGEN INC., priority 2018, dated 2025).
